Patent US20210386367A1, “DEVICES AND SYSTEMS FOR GASTROINTESTINAL MICROBIOME DETECTION AND MANIPULATION” (Progenity, Inc., priority 2018, published 2021)
In brackets after ≈: the same amount, converted by molar mass. Read-outs that look alike come from different tables or passages of the source.

How the values were obtained:
Assay type in all cases: cell-based
[1] = system: Enterococcus faecalis; assay: Broth microdilution MIC, 50 clinical isolates
Description: (§1) Minimal inhibitory concentration (MIC) values were determined by broth microdilution or agar dilution in accordance with guidelines from the Clinical and Laboratory Standards Institute (CLSI; (1) “Methods for Dilution Antimicrobial Susceptibility Tests for Bacteria That Grow Aerobically; Approved Standard; 11th ed.” CLSI standard M07-A11, 2018; (2) “Performance Standards for Antimicrobial Susceptibility Testing; Twenty-Eighth Informational Supplement,” CLSI document M100-S28, 2018; and (3) “Methods for Antimicrobial Susceptibility Testing of Anaerobic Bacteria; Approved Standard—Eighth Edition,” CLSI document M11-A8, 2012).
(§2) Tested aerobically by broth microdilution: • Escherichia coli, n=50 • Klebsiella spp., n=50 • Pseudomonas aeruginosa, n=50 • Streptococcus spp., n=50 • Staphylococcus aureus, n=50 • Enterococcus faecalis, n=50 • Enterobacter aerogenes, n=50 • Proteus mirabilis, n=50
(§3) Broth microdilution testing of aerobic bacteria was conducted in cation-adjusted Mueller Hinton broth (MHBII). For testing streptococci, lysed horse blood (LHB) was added to MHBII broth at a final concentration of 3%. Where LHB was used, it was added after filtering.
(§4) Broth microdilution susceptibility testing in 96-well microplates was conducted in accordance with CLSI methods (1) and (2). Automated liquid handlers were used to conduct serial dilutions and liquid transfers, including the Multidrop 384 (Labsystems, Helsinki, Finland), Biomek 2000, and the Biomek FX (Beckman Coulter, Fullerton, Calif.). All wells in columns 2 through 12 of a standard 96-well microdilution plate (Costar 3795) were filled with 150 μL of the appropriate diluent. Then, 300 μL of the test agents were added to the wells of column 1 of the plates at 100× the highest final concentration to be tested. Serial two-fold dilutions were made across the rows through column 11 using the Biomek 2000. The wells of column 12 contained no drug and served as the growth control wells. This plate served as the “mother plate” from which MIC assay plates or “daughter plates” were made.
(§5) The daughter plates were loaded with 190 μL per well of the appropriate medium using the Multidrop 384. The daughter plates were created using the Biomek FX which transferred 2 μL of drug solution from each well of a mother plate to each corresponding well of the daughter plate in a single step. A standardized inoculum of each test organism was prepared per CLSI methods (1) to equal a 0.5 McFarland standard, followed by a dilution of 1:20 for aerobes and 1:10 for anaerobes. The plates were then inoculated with 10 μL of the diluted inoculum using the Biomek 2000 from low to high drug concentration, resulting in a final concentration of approximately 5×10^5 CFU/mL per well. An un-inoculated plate was incubated in parallel for each medium for the purpose of assessing solubility of the drug in the test media.
(§6) Inoculated plates were stacked 3 or 4 high, covered with a sterile lid on the top plate, placed into boxes with CO2 planchets (streptococci) or plastic bags (all other isolates). Plates were incubated at 35° C. for 16-24 hr in ambient air for aerobes or for 42-48 hr in the anaerobic environment of the Bactron II anaerobe chamber (Sheldon Manufacturing Co.; Cornelius, Oreg.). Following incubation, the microplates were removed from the incubator and viewed from the bottom using a plate viewer. The MIC values were read and recorded as the lowest concentration of drug that inhibited visible growth of the organism as per CLSI methods (1) and (2).

[2] = system: Staphylococcus aureus clinical isolates; assay: MIC distribution against clinical isolates; details: 50 S. aureus isolates
Excerpt: (§7) As used herein, “minimum inhibitory concentration” or “MIC” refers to the lowest concentration of an antimicrobial agent, for example, an antimicrobial agent as described herein, required to inhibit the growth of an organism.
(§8) Many susceptibility testing methods are known in the art and can be used as described herein (see, e.g., Jorgensen and Ferraro (2009) Clinical Infectious Diseases 49:1749-1755; and Maurer et al. (2017) Infectious Disease Reports 9:6839; the entire contents of each of the foregoing are incorporated herein by reference). For example, antimicrobial susceptibility can be determined using conventional culture based methods such as the broth or agar dilution test. In these dilution tests, the bacterial isolate of interest is inoculated onto different media that include serial dilutions of an antimicrobial agent, and incubated under appropriate conditions (e.g., overnight at 37° C.) to allow for growth to occur. Following the incubation period, the media is examined to determine bacterial growth. The lowest concentration of antibiotic that prevents growth represents the minimal inhibitory concentration (MIC). Broth dilution tests can be miniaturized and mechanized allowing for reproducibility and high throughput.

[3] = system: Enterococcus faecalis clinical isolates; assay: MIC distribution against clinical isolates; details: 50 E. faecalis isolates
Excerpt: as §7, §8

[4] = system: Streptococcus agalactiae; assay: Broth microdilution MIC, 20 clinical isolates; details: Streptococcus agalactiae
Description: as §1, §2, §3, §4, §5, §6

[5] = system: Viridans group Streptococcus; assay: Broth microdilution MIC, 15 clinical isolates
Description: as §1, §2, §3, §4, §5, §6

[6] = system: Streptococcus spp.; assay: Broth microdilution MIC, 54 clinical isolates
Description: as §1, §2, §3, §4, §5, §6

[7] = 15 Viridans group Streptococci clinical isolates
[8] = 54 Streptococcus spp. clinical isolates

## CO/N=C(\C(=O)N[C@@H]1C(=O)N2C(C(=O)O)=C(CSc3nc(=O)c(=O)[nH]n3C)CS[C@H]12)c1csc(N)n1 [ceftriaxone]
[1]
  Mode: >64 µg/mL
[1]; Enterococcus faecalis, read-out: MIC50
  MIC50: > 64 µg/mL
[1]; Enterococcus faecalis, read-out: MIC90
  MIC90: > 64 µg/mL
[1]; listed as CTR
  MIC50: >64 µg/mL
  MIC90: >64 µg/mL
[2]; MIC 0.008 μg/mL
  Number of test isolates at MIC: 0
[2]; MIC 2 μg/mL
  Cumulative percentage of isolates inhibited at MIC: 6.0%
  Number of test isolates at MIC: 3
[2]; MIC 4 μg/mL
  Cumulative percentage of isolates inhibited at MIC: 38.0%
  Number of test isolates at MIC: 16
[2]; MIC 8 μg/mL
  Cumulative percentage of isolates inhibited at MIC: 44.0%
  Number of test isolates at MIC: 3
[2]; MIC 32 μg/mL
  Cumulative percentage of isolates inhibited at MIC: 52.0%
  Number of test isolates at MIC: 4
[2]; MIC 64 μg/mL
  Cumulative percentage of isolates inhibited at MIC: 56.0%
  Number of test isolates at MIC: 2
[2]; MIC >16 μg/mL
  Number of test isolates at MIC: 2
[2]; MIC >64 μg/mL
  Cumulative percentage of isolates inhibited at MIC: 100.0%
  Number of test isolates at MIC: 22
[3]; MIC 1 μg/mL
  Cumulative percentage of isolates inhibited at MIC: 2.0%
  Number of test isolates at MIC: 1
[3]; MIC 16 μg/mL
  Cumulative percentage of isolates inhibited at MIC: 4.0%
  Number of test isolates at MIC: 1
[3]; MIC 64 μg/mL
  Cumulative percentage of isolates inhibited at MIC: 10.0%
  Number of test isolates at MIC: 3
[3]; MIC >64 μg/mL
  Cumulative percentage of isolates inhibited at MIC: 100.0%
  Number of test isolates at MIC: 45
[4]; read-out: MIC50
  MIC50: 0.06 µg/mL (≈ 0.108 µM)
[4]; read-out: MIC90
  MIC90: 0.06 µg/mL (≈ 0.108 µM)
[5]; [7]
  MIC50: 0.06 µg/mL (≈ 0.108 µM)
  MIC90: 0.5 µg/mL (≈ 0.902 µM)
  MIC range: 0.008 to 1 µg/mL
[5]; 15 Viridans group Streptococci clinical isolates, MXF by FDA breakpoints
  % S: 100%
[5]; Streptococcus, read-out: MIC50
  MIC50: 0.06 µg/mL (≈ 0.108 µM)
[5]; Streptococcus, read-out: MIC90
  MIC90: 0.5 µg/mL (≈ 0.902 µM)
[5]; modal MIC, 15 Viridans group Streptococci clinical isolates
  Mode: 0.06 µg/mL
[6]
  isolates susceptible: 100%
[6]; [8]
  MIC50: 0.03 µg/mL (≈ 0.0541 µM)
  MIC90: 0.12 µg/mL (≈ 0.216 µM)
  MIC range: 0.008 to 1 µg/mL
[6]; 54 Streptococcus spp. clinical isolates, MXF by FDA breakpoints
  % S: 100%
[6]; Streptococcus, read-out: MIC50
  MIC50: 0.03 µg/mL (≈ 0.0541 µM)
[6]; Streptococcus, read-out: MIC90
  MIC90: 0.12 µg/mL (≈ 0.216 µM)
[6]; modal MIC, 54 Streptococcus spp. clinical isolates
  Mode: 0.06 µg/mL
